The source of these data is patent publication US20050090529A1, “3,5 Disubstituted indazole compounds with nitrogen-bearing 5-membered heterocycles, pharmaceutical compositions, and methods for mediating or inhibiting cell proliferation” (PFIZER INC, priority 2003, published 2005).

Each structure is given as a SMILES string.

For the experiment, the system named is Cyclin-dependent kinase. Kind of experiment: Cyclin-dependent kinase inhibition, % inhibition at 10 nM (library Examples 99-270). The settings on record: 10 nM compound. It is filed as biochemical. In short, it runs like this: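 Enzyme starts the reaction at 30° C, which runs 20 min with 25 μM [³²P/³³P]ATP and protein substrate (pH 7.4, 10 mM MgCl2, 2% DMSO). After EDTA quench, membrane-bound labelled substrate is read by phosphorimaging following acid washes.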
Regarding `CCNCc1cncc(-c2ccc3[nH]nc(-c4ncc(C(=O)N5CCN(CC(=O)N6CCCCC6)CC5)[nH]4)c3c2)c1C` [Example 246, ethyl({4-methyl-5-[3-(5-{[4-(2-oxo-2-piperidin-1-ylethyl)piperazin-1-yl]carbonyl}-1H-imidazol-2-yl)-1H-indazol-5-yl]pyridin-3-yl}methyl)amine], the “% Inhib @ 10 nM” value amounted to 26%.

Consider `CCNCc1cncc(-c2ccc3[nH]nc(-c4ncc(C(=O)N(C)CCCN(C)C)[nH]4)c3c2)c1C` [Example 122], for which the “% Inhib @ 10 nM” value is recorded as 30%.

On to `CCNCc1cncc(-c2ccc3[nH]nc(-c4ncc(C(=O)NCc5ccc(C(=O)OC)cc5)[nH]4)c3c2)c1C` [Example 194, methyl-4-[({[2-(5-{5-[(ethylamino)methyl]-4-methylpyridin-3-yl}-1H-indazol-3-yl)-1H-imidazol-5-yl]carbonyl}amino)methyl]benzoate], for which the “% Inhib @ 10 nM” value is on record as 65%.

Consider `CCNCc1cncc(-c2ccc3[nH]nc(-c4ncc(C(=O)N5CCN(Cc6ccccn6)CC5)[nH]4)c3c2)c1C` [Example 228, ethyl({4-methyl-5-[3-(5-{[4-(pyridin-2-ylmethyl)piperazin-1-yl]carbonyl)-1H-imidazol-2-yl)-1H-indazol-5-yl]pyridin-3-yl}methyl)amine], for which the “% Inhib @ 10 nM” value is given as 50%.

For `C=CCN(CC=C)CCN1CCN(C(=O)c2cnc(-c3n[nH]c4ccc(-c5cncc(CNCC)c5C)cc34)[nH]2)CC1` [Example 146, diallyl[2-(4-{[2-(5-{5-[(ethylamino)methyl]-4.-methylpyridin-3-yl}-1H-indazol-3-yl)-1H-imidazol-5-yl]carbonyl}piperazin-1-yl)ethyl]amine], the “% Inhib @ 10 nM” value turned out to be 22%.

Consider `CCNCc1cncc(-c2ccc3[nH]nc(-c4ncc(C(=O)NCc5ccc(C(C)(C)O)cc5)[nH]4)c3c2)c1C` [Example 235, 2-(5-{5-[(ethylamino)methyl]-4-methylpyridin-3-yl}-1H-indazol-3-yl)-N-[4-(1-hydroxy-1-methylethyl)benzyl]-1H-imidazole-5-carboxamide], for which the “% Inhib @ 10 nM” value came to 63%.

With `CCNCc1cncc(-c2ccc3[nH]nc(-c4ncc(C(=O)N5CCC(n6c(=O)[nH]c7ccccc76)CC5)[nH]4)c3c2)c1C` [Example 107], the “% Inhib @ 10 nM” value was 59%.

On to `CCNCc1cncc(-c2ccc3[nH]nc(-c4ncc(C(=O)NCC5(N(C)C)CCOCC5)[nH]4)c3c2)c1C` [Example 210], for which the “% Inhib @ 10 nM” value stood at 35%.

Consider `CCNCc1cncc(-c2ccc3[nH]nc(-c4ncc(C(=O)NCCN5CCOCC5)[nH]4)c3c2)c1C` [Example 103, 2-(5-{5-[(ethylamino)methyl]-4-methylpyridin-3-yl}-1H-indazol-3-yl)-N-(2-morpholin-4-ylethyl)-1H-imidazole-5-carboxamide], for which the “% Inhib @ 10 nM” value was determined as 40%.

`CCNCc1cncc(-c2ccc3[nH]nc(-c4ncc(C(=O)NCc5ccc6[nH]c(C)cc6c5)[nH]4)c3c2)c1C` [Example 238, 2-(5-{5-[(ethylamino)methy]-4-methylpyridin-3-yl}-1H-indazol-3-yl)-N-[(2-methyl-1H-indol-5-yl)methyl]-1H-imidazole-5-carboxamide]: the “% Inhib @ 10 nM” value was 75%.

Consider `CCNCc1cncc(-c2ccc3[nH]nc(-c4ncc(C(=O)N(C)CCS(C)(=O)=O)[nH]4)c3c2)c1C` [Example 241], for which the “% Inhib @ 10 nM” value amounted to 59%.

With `CCNCc1cncc(-c2ccc3[nH]nc(-c4ncc(C(=O)N5CCCN(C)CC5)[nH]4)c3c2)c1C` [Example 119, ethyl{(4-methyl-5-(3-{5-[(4-methyl-1,4-diazepan-1-yl)carbonyl]-1H-imidazol-2-yl}-1H-indazol-5-yl)pyridin-3-yl]methyl}amine], the “% Inhib @ 10 nM” value was determined as 38%.

Consider `CCNCc1cncc(-c2ccc3[nH]nc(-c4ncc(C(=O)N5CCN(CC(=O)NC(C)C)CC5)[nH]4)c3c2)c1C` [Example 118, 2-(4-{[2-(5-{5-[(ethylamino)methyl]-4-methylpyridin-3-yl}-1H-indazol-3-yl)-1H-imidazol-5-yl]carbonyl}piperazin-1-yl)-N-isopropylacetamide], for which the “% Inhib @ 10 nM” value was 44%.

Consider `CCNCc1cncc(-c2ccc3[nH]nc(-c4ncc(C(=O)N5CCCC(O)(CN6CCCC6=O)CC5)[nH]4)c3c2)c1C` (centres unmarked) [Example 267, 1-[(1-{[2-(5-{5-[(ethylamino)methyl]-4-methylpyridin-3-yl}-1H-indazol-3-yl)-1H-imidazol-5-yl]carbonyl}-4-hydroxyazepan-4-yl)methyl]pyrrolidin-2-one], for which the “% Inhib @ 10 nM” value was 21%.

In the case of `CCNCc1cncc(-c2ccc3[nH]nc(-c4ncc(C(=O)N5CCC(n6c(C)nc7cnccc76)CC5)[nH]4)c3c2)c1C` [Example 247, ethyl({4-methyl-5-[3-(5-{[4-(2-methyl-1H-imidazol[4,5-c]pyridin-1-yl)piperidin-1-yl]carbonyl}-1H-imidazol-2-yl)-1H-indazol-5-yl]pyridin-3-yl}methyl)amine], the “% Inhib @ 10 nM” value was determined as 26%.

For the molecule `CCNCc1cncc(-c2ccc3[nH]nc(-c4ncc(C(=O)N5CCc6c(C(=O)NC)csc6C5)[nH]4)c3c2)c1C` [Example 259, 6-{[2-(5-{5-[(ethylamino)methyl]-4-methylpyridin-3-yl}-1H-indazol-3-yl)-1H-imidazol-5-yl]carbonyl}-N-methyl-4,5,6,7-tetrahydrothieno[2,3-c]pyridine-3-carboxamlde], the “% Inhib @ 10 nM” value was found to be 69%.

On to `CCNCc1cncc(-c2ccc3[nH]nc(-c4ncc(C(=O)N(C)CCc5ccc(OC)c(OC)c5)[nH]4)c3c2)c1C` [Example 165, N-[2-(3,4-dimethoxyphenyl)ethyl]-2-(5-{5-[(ethylamino)methyl]-4-methylpyridin-3-yl}-1H-indazol-3-yl)-N-methyl-1H-imidazole-5-carboxamide], for which the “% Inhib @ 10 nM” value worked out at 37%.

`CCNCc1cncc(-c2ccc3[nH]nc(-c4ncc(C(=O)N5CCN(CC(=O)N(C)C)CC5)[nH]4)c3c2)c1C` [Example 182]: the “% Inhib @ 10 nM” value was 40%.

Regarding `CCNCc1cncc(-c2ccc3[nH]nc(-c4ncc(C(=O)NC(CO)c5cccnc5)[nH]4)c3c2)c1C` (centres unmarked) [Example 244], the “% Inhib @ 10 nM” value is 55%.

Consider `CCNCc1cncc(-c2ccc3[nH]nc(-c4ncc(C(=O)NCCc5ncn[nH]5)[nH]4)c3c2)c1C` [Example 198, 2-(5-{5-[(ethylamino)methyl]-4-methylpyridin-3-yl}-1H-indazol-3-yl)-N-[2-(1H-1,2,4-triazol-5-yl)ethyl]-1H-imidazole-5-carboxamide], for which the “% Inhib @ 10 nM” value was 55%.

With `CCNCc1cncc(-c2ccc3[nH]nc(-c4ncc(C(=O)NCCC#N)[nH]4)c3c2)c1C` [Example 154, N-(2-cyanoethyl)-2-(5-{5-[(ethylamino)methyl]-4-methylpyridin-3-yl}-1H-indazxol-3-yl)-1H-imidazole-5-carboxamide], the “% Inhib @ 10 nM” value was 71%.

Turning to `CCNCc1cncc(-c2ccc3[nH]nc(-c4ncc(C(=O)N(CCC#N)Cc5cccnc5)[nH]4)c3c2)c1C` [Example 206, N-(2-cyanoethyl)-2-(5-{5-N(ethylamino)methyl8-4-methylpyridin-3-yl}-1H-indazol-3-yl)-N-(pyridin-3-ylmethyl)-1H-imidazole-5-carboxamide], the “% Inhib @ 10 nM” value worked out at 71%.

`CCNCc1cncc(-c2ccc3[nH]nc(-c4ncc(C(=O)N5CCN(Cc6ccccc6)CC5)[nH]4)c3c2)c1C` [Example 117]: the “% Inhib @ 10 nM” value is 72%.

`CCNCc1cncc(-c2ccc3[nH]nc(-c4ncc(C(=O)N5CCN(c6cnccn6)CC5)[nH]4)c3c2)c1C` [Example 145]: the “% Inhib @ 10 nM” value is 58%.

Regarding `CCNCc1cncc(-c2ccc3[nH]nc(-c4ncc(C(=O)N5CCC(NC(C)=O)C5)[nH]4)c3c2)c1C` (centres unmarked) [Example 129], the “% Inhib @ 10 nM” value was found to be 55%.

`CCNCc1cncc(-c2ccc3[nH]nc(-c4ncc(C(=O)N[C@H](CO)Cc5ccc(O)cc5)[nH]4)c3c2)c1C` [Example 173]: the “% Inhib @ 10 nM” value is 45%.

`CCNCc1cncc(-c2ccc3[nH]nc(-c4ncc(C(=O)N(CC)CCOC)[nH]4)c3c2)c1C` [Example 175, N-ethyl-2-(5-{5-[(ethylamino)methyl]-4-methylpyridin-3-yl}-1H-indazol-3-yl)-N-(2-methoxyethyl)-1H-imidazole-5-carboxamide]: the “% Inhib @ 10 nM” value is given as 68%.

As for `CCNCc1cncc(-c2ccc3[nH]nc(-c4ncc(C(=O)NCCCc5c[nH]cn5)[nH]4)c3c2)c1C` [Example 189, 2-(5-{5-[(ethylamino)methyl]-4-methylpyridin-3-yl}-1H-indazol-3-yl)-N-[3-(1H-imidazol-4-yl)propyl]-1H-imidazole-5-carboxamide], the “% Inhib @ 10 nM” value stood at 59%.

For `CCNCc1cncc(-c2ccc3[nH]nc(-c4ncc(C(=O)N5CCN(CC(=O)N6CCOCC6)CC5)[nH]4)c3c2)c1C` [Example 127, ethyl({4-methyl-5-[3-(5-{[4-(2-morpholin-4-yl-2-oxoethyl)piperazin-1-yl]carbonyl}-1H-imidazol-2-yl)-1H-indazol-5-yl]pyridin-3-yl}methyl)amine], the “% Inhib @ 10 nM” value came to 26%.

With `CCNCc1cncc(-c2ccc3[nH]nc(-c4ncc(C(=O)N(CCN(C)C)Cc5ccccc5)[nH]4)c3c2)c1C` [Example 123, N-benzyl-N-[2-(dimethylamino)ethyl]-2-(5-{5-[(ethylamino)methyl]-4-methylpyridin-3-yl}-1H-indazol-3-yl)-1H-imidazale-5-carboxamide], the “% Inhib @ 10 nM” value is listed as 54%.

`CCNCc1cncc(-c2ccc3[nH]nc(-c4ncc(C(=O)N5CCc6nc(C)sc6C5)[nH]4)c3c2)c1C` [Example 234, ethyl{[4-methyl-5-(3-{5-[(2-methyl-6,7-dihydro[1,3]thiazolo[5,4-c]pyridin-5-(4H)-yl)carbonyl]-1H-imidazol-2-yl)-1H-indazol-5-yl)pyridin-3-yl]methyl}amine]: the “% Inhib @ 10 nM” value is reported as 74%.

For the molecule `CCNCc1cncc(-c2ccc3[nH]nc(-c4ncc(C(=O)N5CCN(c6cccc7ccccc67)CC5)[nH]4)c3c2)c1C` [Example 236, ethyl({4-methyl-5-[3-(5-{[4-(1-naphthyl)piperazin-1-yl]carbonyl}-1H-imidazol-2-yl)-1H-indazol-5-yl]pyridin-3-yl}methyl)amine], the “% Inhib @ 10 nM” value is 74%.
